# Test results taken from publication PMC6199744, “Development of Chemical Proteomics for the Folateome and Analysis of the Kinetoplastid Folateome” (ACS Infectious Diseases, 2018).
# Like-named read-outs stand apart in the source and are kept apart here.
# What was measured:
# Assay type in all cases: binding
# [1] = molecular target: T1, HeLa cell extract proteins (Homo sapiens, UniProt Q969X5)
# T1 construct: endogenous in cells; host or cells: HeLa cell extract
# T1 sequence (Q969X5 1-290): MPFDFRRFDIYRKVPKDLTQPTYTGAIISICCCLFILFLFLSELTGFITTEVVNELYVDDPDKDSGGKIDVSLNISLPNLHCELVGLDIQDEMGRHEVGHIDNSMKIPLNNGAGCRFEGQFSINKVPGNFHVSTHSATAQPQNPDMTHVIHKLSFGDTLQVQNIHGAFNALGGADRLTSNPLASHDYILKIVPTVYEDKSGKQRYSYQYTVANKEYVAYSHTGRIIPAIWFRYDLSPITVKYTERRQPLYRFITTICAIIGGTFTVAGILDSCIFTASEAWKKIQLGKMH
# [2] = molecular target: T2, HeLa cell extract proteins (Homo sapiens, UniProt P14324)
# T2 construct: endogenous in cells; host or cells: HeLa cell extract
# T2 sequence (P14324 1-419): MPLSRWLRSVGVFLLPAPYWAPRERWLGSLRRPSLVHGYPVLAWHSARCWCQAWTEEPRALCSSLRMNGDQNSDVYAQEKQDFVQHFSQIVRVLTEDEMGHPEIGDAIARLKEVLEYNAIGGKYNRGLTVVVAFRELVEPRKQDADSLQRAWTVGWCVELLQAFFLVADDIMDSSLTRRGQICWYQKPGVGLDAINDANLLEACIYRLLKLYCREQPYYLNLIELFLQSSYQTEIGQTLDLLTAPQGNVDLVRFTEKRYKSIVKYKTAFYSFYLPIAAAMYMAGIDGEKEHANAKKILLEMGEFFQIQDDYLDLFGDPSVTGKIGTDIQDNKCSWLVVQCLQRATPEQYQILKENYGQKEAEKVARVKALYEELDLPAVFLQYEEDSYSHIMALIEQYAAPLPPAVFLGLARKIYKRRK
# [3] = molecular target: T3, HeLa cell extract proteins (Homo sapiens, UniProt P40227)
# T3 construct: endogenous in cells; host or cells: HeLa cell extract
# [4] = molecular target: T4, HeLa cell extract proteins (Homo sapiens, UniProt P31930)
# T4 construct: endogenous in cells; host or cells: HeLa cell extract
# T4 sequence (P31930 35-480): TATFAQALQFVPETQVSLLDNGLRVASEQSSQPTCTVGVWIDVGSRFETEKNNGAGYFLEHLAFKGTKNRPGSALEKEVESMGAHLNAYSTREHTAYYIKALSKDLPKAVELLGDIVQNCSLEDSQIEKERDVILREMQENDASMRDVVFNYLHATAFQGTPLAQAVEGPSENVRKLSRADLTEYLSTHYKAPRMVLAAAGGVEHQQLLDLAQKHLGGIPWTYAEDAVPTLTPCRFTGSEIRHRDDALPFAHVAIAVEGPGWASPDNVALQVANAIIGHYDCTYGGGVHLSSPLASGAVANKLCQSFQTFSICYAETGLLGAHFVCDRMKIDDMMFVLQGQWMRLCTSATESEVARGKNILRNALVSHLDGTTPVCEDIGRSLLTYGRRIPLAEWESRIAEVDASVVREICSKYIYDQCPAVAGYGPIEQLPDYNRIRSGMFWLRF
# [5] = molecular target: T5, HeLa cell extract proteins (Homo sapiens, UniProt P15311)
# T5 construct: endogenous in cells; host or cells: HeLa cell extract
# [6] = molecular target: T6, HeLa cell extract proteins (Homo sapiens, UniProt P04179)
# T6 construct: endogenous in cells; host or cells: HeLa cell extract
# T6 sequence (P04179 25-222): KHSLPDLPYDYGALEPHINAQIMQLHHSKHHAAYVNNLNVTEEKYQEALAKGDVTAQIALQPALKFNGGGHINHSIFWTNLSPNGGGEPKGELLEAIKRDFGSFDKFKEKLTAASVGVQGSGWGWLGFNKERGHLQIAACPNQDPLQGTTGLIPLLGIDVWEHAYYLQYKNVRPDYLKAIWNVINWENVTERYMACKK
# [7] = molecular target: T7, HeLa cell extract proteins (Homo sapiens, UniProt Q08380)
# T7 construct: endogenous in cells; host or cells: HeLa cell extract
# T7 sequence (Q08380 19-585): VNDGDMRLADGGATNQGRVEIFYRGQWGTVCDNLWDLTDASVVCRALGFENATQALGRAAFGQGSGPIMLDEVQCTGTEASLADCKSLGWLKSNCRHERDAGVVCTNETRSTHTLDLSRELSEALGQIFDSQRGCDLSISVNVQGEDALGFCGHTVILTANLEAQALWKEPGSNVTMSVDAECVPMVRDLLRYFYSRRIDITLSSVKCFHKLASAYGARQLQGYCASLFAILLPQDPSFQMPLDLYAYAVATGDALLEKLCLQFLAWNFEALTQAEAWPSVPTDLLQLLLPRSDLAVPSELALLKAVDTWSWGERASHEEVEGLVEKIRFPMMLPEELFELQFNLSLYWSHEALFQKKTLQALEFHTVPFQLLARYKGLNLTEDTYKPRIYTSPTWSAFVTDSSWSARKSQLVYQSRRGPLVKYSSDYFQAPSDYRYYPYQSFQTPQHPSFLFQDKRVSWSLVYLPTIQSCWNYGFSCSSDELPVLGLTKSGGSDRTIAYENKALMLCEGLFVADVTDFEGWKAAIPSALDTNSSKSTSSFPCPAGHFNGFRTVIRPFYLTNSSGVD
# [8] = molecular target: T8, HeLa cell extract proteins (Homo sapiens, UniProt O95619)
# T8 construct: endogenous in cells; host or cells: HeLa cell extract
# [9] = molecular target: T9, HeLa cell extract proteins (Homo sapiens, UniProt P30153)
# T9 construct: endogenous in cells; host or cells: HeLa cell extract
# [10] = molecular target: T10, HeLa cell extract proteins (Homo sapiens, UniProt P35637)
# T10 construct: endogenous in cells; host or cells: HeLa cell extract
# T10 sequence (P35637 1-526): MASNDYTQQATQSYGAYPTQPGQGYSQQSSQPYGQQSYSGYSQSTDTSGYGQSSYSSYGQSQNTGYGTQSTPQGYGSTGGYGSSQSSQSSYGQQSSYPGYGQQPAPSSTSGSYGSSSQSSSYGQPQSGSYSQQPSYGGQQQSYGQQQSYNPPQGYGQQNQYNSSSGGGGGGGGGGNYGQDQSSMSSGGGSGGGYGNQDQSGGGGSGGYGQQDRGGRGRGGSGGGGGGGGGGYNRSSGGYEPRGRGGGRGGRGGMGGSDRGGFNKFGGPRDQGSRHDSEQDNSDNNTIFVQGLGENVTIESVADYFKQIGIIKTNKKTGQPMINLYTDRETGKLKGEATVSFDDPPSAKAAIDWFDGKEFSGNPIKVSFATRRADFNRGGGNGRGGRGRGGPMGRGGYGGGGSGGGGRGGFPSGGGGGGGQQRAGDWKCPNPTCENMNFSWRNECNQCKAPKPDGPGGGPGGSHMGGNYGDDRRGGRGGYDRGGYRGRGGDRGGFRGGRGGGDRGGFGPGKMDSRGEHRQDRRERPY
# [11] = HeLa, protein LGALS3BP (GALECTIN-3-BINDING PROTEIN PRECURSOR)
# [12] = HeLa, protein FUS (FUS-LIKE PROTEIN (FRAGMENT))
# T9 sequence (P30153 whole entry): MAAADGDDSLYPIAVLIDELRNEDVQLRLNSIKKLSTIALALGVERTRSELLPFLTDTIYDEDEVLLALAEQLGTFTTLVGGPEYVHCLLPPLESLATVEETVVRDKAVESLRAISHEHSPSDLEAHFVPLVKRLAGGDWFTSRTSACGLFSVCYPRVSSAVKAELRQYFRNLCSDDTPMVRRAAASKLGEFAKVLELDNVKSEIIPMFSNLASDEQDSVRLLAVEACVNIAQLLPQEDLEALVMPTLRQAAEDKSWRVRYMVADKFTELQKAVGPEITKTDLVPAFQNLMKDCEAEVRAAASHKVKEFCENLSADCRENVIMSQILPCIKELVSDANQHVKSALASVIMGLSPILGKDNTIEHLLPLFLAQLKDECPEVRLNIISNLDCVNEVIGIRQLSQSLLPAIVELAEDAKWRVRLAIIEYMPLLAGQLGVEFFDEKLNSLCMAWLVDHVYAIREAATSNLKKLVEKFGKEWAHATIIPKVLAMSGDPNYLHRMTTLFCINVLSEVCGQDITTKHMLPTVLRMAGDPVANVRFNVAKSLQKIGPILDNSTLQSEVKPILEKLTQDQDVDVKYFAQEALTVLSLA
# T3 sequence (P40227 whole entry): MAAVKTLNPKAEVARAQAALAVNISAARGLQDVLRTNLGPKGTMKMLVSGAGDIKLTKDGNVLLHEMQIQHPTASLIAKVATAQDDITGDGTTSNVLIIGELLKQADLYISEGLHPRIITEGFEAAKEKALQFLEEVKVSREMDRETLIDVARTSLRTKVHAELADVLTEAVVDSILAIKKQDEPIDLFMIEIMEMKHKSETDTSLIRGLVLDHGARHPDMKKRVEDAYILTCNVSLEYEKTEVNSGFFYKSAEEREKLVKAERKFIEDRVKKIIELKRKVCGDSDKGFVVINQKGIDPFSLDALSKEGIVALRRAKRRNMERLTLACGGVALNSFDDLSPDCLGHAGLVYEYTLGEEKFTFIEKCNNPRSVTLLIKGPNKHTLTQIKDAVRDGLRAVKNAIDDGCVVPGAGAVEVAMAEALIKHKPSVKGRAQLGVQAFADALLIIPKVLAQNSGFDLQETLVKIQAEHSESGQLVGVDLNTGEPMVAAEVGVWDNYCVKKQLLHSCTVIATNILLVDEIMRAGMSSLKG
# T8 sequence (O95619 whole entry): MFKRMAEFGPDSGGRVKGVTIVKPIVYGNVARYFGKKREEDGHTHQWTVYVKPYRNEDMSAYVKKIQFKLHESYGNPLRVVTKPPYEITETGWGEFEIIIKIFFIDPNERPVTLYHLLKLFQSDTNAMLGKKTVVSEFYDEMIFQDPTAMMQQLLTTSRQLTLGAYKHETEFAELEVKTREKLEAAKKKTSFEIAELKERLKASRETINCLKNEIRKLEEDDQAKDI
# T5 sequence (P15311 whole entry): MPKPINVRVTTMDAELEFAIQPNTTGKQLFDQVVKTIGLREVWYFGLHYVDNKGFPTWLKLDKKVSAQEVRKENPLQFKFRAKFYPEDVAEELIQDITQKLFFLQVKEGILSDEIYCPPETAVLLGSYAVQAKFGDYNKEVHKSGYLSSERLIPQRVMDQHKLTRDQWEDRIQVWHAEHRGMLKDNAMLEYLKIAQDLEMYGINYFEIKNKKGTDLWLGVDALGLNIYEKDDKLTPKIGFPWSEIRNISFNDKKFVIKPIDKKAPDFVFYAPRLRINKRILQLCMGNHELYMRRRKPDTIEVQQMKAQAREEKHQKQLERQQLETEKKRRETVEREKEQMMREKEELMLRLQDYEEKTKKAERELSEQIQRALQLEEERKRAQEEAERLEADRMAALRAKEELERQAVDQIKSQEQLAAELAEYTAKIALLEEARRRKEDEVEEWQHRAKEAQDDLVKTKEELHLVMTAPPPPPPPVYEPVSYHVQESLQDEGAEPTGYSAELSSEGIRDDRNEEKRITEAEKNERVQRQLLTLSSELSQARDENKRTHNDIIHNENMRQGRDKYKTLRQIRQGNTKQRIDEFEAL
Compound,"fold changes relative to vehicle control ([1]; captured protein ERGIC1, HeLa)","fold changes relative to vehicle control ([2]; protein FDPS, HeLa)","fold changes relative to vehicle control ([3]; protein CCT6A, HeLa)","fold changes relative to vehicle control ([4]; HeLa, protein UQCRC1)","fold changes relative to vehicle control ([5]; protein EZR, HeLa)","fold changes relative to vehicle control ([6]; protein SOD2, HeLa)","fold changes relative to vehicle control ([7]; protein LGALS3BP, HeLa)","fold changes relative to vehicle control ([8]; HeLa, protein YEATS4)","fold changes relative to vehicle control ([9]; HeLa, protein PPP2R1A)","fold changes relative to vehicle control ([10]; protein FUS, HeLa)","fold changes relative to vehicle control ([1]; protein ERGIC1, HeLa)","fold changes relative to vehicle control ([2]; HeLa, captured protein FDPS)","fold changes relative to vehicle control ([3]; HeLa, protein CCT6A)","fold changes relative to vehicle control ([4]; HeLa, captured protein UQCRC1)","fold changes relative to vehicle control ([5]; HeLa, protein EZR)","fold changes relative to vehicle control ([6]; HeLa, protein SOD2)","fold changes relative to vehicle control [7, 11]","fold changes relative to vehicle control ([8]; HeLa, captured protein YEATS4)","fold changes relative to vehicle control [10, 12]",other results
Nc1nc2cccc(-c3ccccc3)c2n1Cc1ccc(Cl)c(Cl)c1 [compound 3],1.1,0.87,1.04,0.96,0.8,1.43,1.07,0.99,0.88,1.02,,,,,,,,,,
CCCCCCOc1ccc(Cc2cnc(N)nc2N)cc1 [compound 1],0.94,1.17,1.39,1.09,1.23,1.91,0.97,1.04,0.95,1.05,,,,,,,,,,
NCCCNc1ccc(C(=O)NC(CCC(=O)O)C(=O)O)cc1 (stereo not shown) [compound 7],,,,,,,,,0.95,,1.31,0.97,1.31,0.99,0.92,1.35,1.09,1.29,1.25,
CCCCCCOc1cccc(Cc2cnc(N)nc2N)c1 [compound 2],1.02,2.08,2.04,0.92,1.87,2.29,0.95,0.92,0.95,1.21,,,,,,,,,,
NCCOCCOCC(=O)Nc1nc2ncc(CNc3ccc(C(=O)NC(CCC(=O)O)C(=O)O)cc3)nc2c(=O)[nH]1 (stereo not shown) [compound 6],,,,,,,,,0.86,,0.86,1.29,1.19,0.95,1.16,1.65,1.02,0.81,1.09,
"Nc1nc2[nH]cc(CCc3ccc(C(=O)N[C@@H](CCC(=O)O)C(=O)O)cc3)c2c(=O)[nH]1 [PTX, pemetrexed]",,,,,,,,,,,,,,,,,,,,fold changes relative to vehicle control [1]: 0.85; fold changes relative to vehicle control [2]: 1.08; fold changes relative to vehicle control [3]: 1.11; fold changes relative to vehicle control [4]: 0.88; fold changes relative to vehicle control [5]: 1; fold changes relative to vehicle control [6]: 1.29; fold changes relative to vehicle control [7]: 1.13; fold changes relative to vehicle control [8]: 0.99; fold changes relative to vehicle control [9]: 0.87; fold changes relative to vehicle control [10]: 1.03
"Nc1nc2c(c(=O)[nH]1)N(C=O)C(CNc1ccc(C(=O)N[C@@H](CCC(=O)O)C(=O)O)cc1)CN2 (stereo partly shown) [LEU, leucovorin]",,,,,,,,,0.97,,0.77,1.05,1.01,0.99,0.94,1.14,1.08,1.09,1.06,
